Data reported in ChEMBL document CHEMBL3580659, “One-pot multicomponent synthesis of indole incorporated thiazolylcoumarins and their antibacterial, anticancer and DNA cleavage studies” (2015).

Columns and labels:
Type in all cases: functional
OVCAR-5 [1] = assay: Cytotoxicity against human OVCAR5 cells assessed as cell growth level at 1 uM after 48 hrs by sulforhodamine B assay
SF-539 = assay: Cytotoxicity against human SF539 cells assessed as cell growth level at 10 nM after 48 hrs by sulforhodamine B assay
MCF7 = assay: Cytotoxicity against human MCF7 cells assessed as cell growth level at 100 uM after 48 hrs by sulforhodamine B assay
OVCAR-5 [2] = assay: Cytotoxicity against human OVCAR5 cells after 48 hrs by sulforhodamine B assay; conditions: OVCAR-5, 48 h
A549 = assay: Cytotoxicity against human A549/ATCC cells assessed as cell growth level at 10 nM after 48 hrs by sulforhodamine B assay
UO-31 = assay: Cytotoxicity against human UO31 cells assessed as cell growth level at 100 nM after 48 hrs by sulforhodamine B assay
786-0 [3] = assay: Cytotoxicity against human 786-0 cells assessed as cell growth level at 10 nM after 48 hrs by sulforhodamine B assay
[4] = Cytotoxicity against human Hs 578T cells after 48 hrs by sulforhodamine B assay
SNB-75 = assay: Cytotoxicity against human SNB75 cells assessed as cell growth level at 10 uM after 48 hrs by sulforhodamine B assay
RPMI-8226 [5] = assay: Cytotoxicity against human RPMI8226 cells assessed as cell growth level at 1 uM after 48 hrs by sulforhodamine B assay
MDA-MB-468 = assay: Cytotoxicity against human MDA-MB-468 cells after 48 hrs by sulforhodamine B assay; conditions: MDA-MB-468, 48 h
UACC-257 = assay: Cytotoxicity against human UACC257 cells assessed as cell growth level at 10 uM after 48 hrs by sulforhodamine B assay
NCI-H522 = assay: Cytotoxicity against human NCI-H522 cells assessed as cell growth level at 10 nM after 48 hrs by sulforhodamine B assay
SF-268 = assay: Cytotoxicity against human SF268 cells assessed as cell growth level at 10 nM after 48 hrs by sulforhodamine B assay
RXF 393 [6] = assay: Cytotoxicity against human RXF393 cells assessed as cell growth level at 10 nM after 48 hrs by sulforhodamine B assay
LOX IMVI = assay: Cytotoxicity against human LOXIMVI cells assessed as cell growth level at 100 nM after 48 hrs by sulforhodamine B assay
SR [7] = assay: Cytotoxicity against human SR cells assessed as cell growth level at 100 uM after 48 hrs by sulforhodamine B assay
OVCAR-5 [8] = assay: Cytotoxicity against human OVCAR5 cells assessed as cell growth level at 10 uM after 48 hrs by sulforhodamine B assay
SW-620 = assay: Cytotoxicity against human SW620 cells assessed as cell growth level at 10 uM after 48 hrs by sulforhodamine B assay
T47D = assay: Cytotoxicity against human T47D cells assessed as cell growth level at 10 uM after 48 hrs by sulforhodamine B assay
RXF 393 [9] = assay: Cytotoxicity against human RXF393 cells after 48 hrs by sulforhodamine B assay; conditions: RXF 393, 48 h
DU-145 = assay: Cytotoxicity against human DU145 cells assessed as cell growth level at 100 uM after 48 hrs by sulforhodamine B assay
HOP-62 = assay: Cytotoxicity against human HOP62 cells assessed as cell growth level at 10 uM after 48 hrs by sulforhodamine B assay
HCC 2998 [10] = assay: Cytotoxicity against human HCC2998 cells assessed as cell growth level at 10 nM after 48 hrs by sulforhodamine B assay
K562 = assay: Cytotoxicity against human K562 cells assessed as cell growth level at 10 nM after 48 hrs by sulforhodamine B assay
NCI-H23 = assay: Cytotoxicity against human NCI-H23 cells assessed as cell growth level at 100 uM after 48 hrs by sulforhodamine B assay
Malme-3M = assay: Cytotoxicity against human MALME-3M cells assessed as cell growth level at 100 nM after 48 hrs by sulforhodamine B assay
SK-MEL-2 = assay: Cytotoxicity against human SK-MEL-2 cells assessed as cell growth level at 100 nM after 48 hrs by sulforhodamine B assay
SR [11] = assay: Cytotoxicity against human SR cells assessed as cell growth level at 1 uM after 48 hrs by sulforhodamine B assay
[12] = Cytotoxicity against human NCI-ADR-RES cells assessed as cell growth level at 1 uM after 48 hrs by sulforhodamine B assay
RXF 393 [13] = assay: Cytotoxicity against human RXF393 cells assessed as cell growth level at 100 uM after 48 hrs by sulforhodamine B assay
HCC 2998 [14] = assay: Cytotoxicity against human HCC2998 cells assessed as cell growth level at 100 uM after 48 hrs by sulforhodamine B assay
RPMI-8226 [15] = assay: Cytotoxicity against human RPMI8226 cells assessed as cell growth level at 10 uM after 48 hrs by sulforhodamine B assay
SF-295 = assay: Cytotoxicity against human SF295 cells assessed as cell growth level at 100 uM after 48 hrs by sulforhodamine B assay
NCI-H322M = assay: Cytotoxicity against human NCI-H322M cells after 48 hrs by sulforhodamine B assay
BT-549 = assay: Cytotoxicity against human BT549 cells after 48 hrs by sulforhodamine B assay; conditions: BT-549, 48 h
HCT-116 = assay: Cytotoxicity against human HCT116 cells assessed as cell growth level at 1 uM after 48 hrs by sulforhodamine B assay
786-0 [16] = assay: Cytotoxicity against human 786-0 cells assessed as cell growth level at 100 uM after 48 hrs by sulforhodamine B assay
HL-60(TB) = assay: Cytotoxicity against human HL-60(TB) cells assessed as cell growth level at 10 uM after 48 hrs by sulforhodamine B assay
[17] = read-out: LC50 (the source's name)
[18] = read-out: pLC50 (the source's name) (converted)

O=c1oc2ccccc2cc1-c1csc(N/N=C/c2c[nH]c3ccccc23)n1
Activity (OVCAR-5 [1]): 87%
Activity (SF-539): 95%
Activity (MCF7): -60%
GI50 (OVCAR-5 [2]; read-out: GI50): 2.34 µM
CC50 (OVCAR-5 [2]; [17]): > 100 µM
TGI (OVCAR-5 [2]; read-out: TGI): 7.8 µM
GI50 (OVCAR-5 [2]; read-out: pGI50 (converted)): 2.34 µM
CC50 (OVCAR-5 [2]; [18]): > 100 µM
TGI (OVCAR-5 [2]; read-out: pTGI (converted)): 7.76 µM
Activity (A549): 94%
Activity (UO-31): 91%
Activity (786-0 [3]): 86%
GI50 ([4]; read-out: GI50): 3.2 µM
CC50 [4, 17]: > 100 µM
TGI ([4]; read-out: TGI): 58.9 µM
GI50 ([4]; read-out: pGI50 (converted)): 3.16 µM
CC50 [4, 18]: > 100 µM
TGI ([4]; read-out: pTGI (converted)): 58.9 µM
Activity (SNB-75): 15.44%
Activity (RPMI-8226 [5]): 48%
GI50 (MDA-MB-468; read-out: GI50): 1.52 µM
CC50 (MDA-MB-468; [17]): > 100 µM
TGI (MDA-MB-468; read-out: TGI): 3.92 µM
GI50 (MDA-MB-468; read-out: pGI50 (converted)): 1.51 µM
CC50 (MDA-MB-468; [18]): > 100 µM
TGI (MDA-MB-468; read-out: pTGI (converted)): 3.89 µM
Activity (UACC-257): 8.34%
Activity (NCI-H522): 105%
Activity (SF-268): 96%
Activity (RXF 393 [6]): 98%
Activity (LOX IMVI): 92%
Activity (SR [7]): -46%
Activity (OVCAR-5 [8]): 55.24%
Activity (SW-620): 17.5%
Activity (T47D): 4.07%
GI50 (RXF 393 [9]; read-out: GI50): 1.97 µM
CC50 (RXF 393 [9]; [17]): 33.9 µM
TGI (RXF 393 [9]; read-out: TGI): 4.77 µM
GI50 (RXF 393 [9]; read-out: pGI50 (converted)): 1.95 µM
CC50 (RXF 393 [9]; [18]): 33.9 µM
TGI (RXF 393 [9]; read-out: pTGI (converted)): 4.79 µM
Activity (DU-145): -2%
Activity (HOP-62): 11.3%
Activity (HCC 2998 [10]): 99%
Activity (K562): 95%
Activity (NCI-H23): -17%
Activity (Malme-3M): 94%
Activity (SK-MEL-2): 95%
Activity (SR [11]): 81%
Activity [12]: 104%
Activity (RXF 393 [13]): -6%
Activity (HCC 2998 [14]): -92%
Activity (RPMI-8226 [15]): -33.83%
Activity (SF-295): -71%
GI50 (NCI-H322M; read-out: GI50): 3.16 µM
LC50 (concentration killing 50% of cells) (NCI-H322M; read-out: LC50): > 100 µM
TGI (NCI-H322M; read-out: TGI): 32.2 µM
GI50 (NCI-H322M; read-out: pGI50 (converted)): 3.16 µM
LC50 (concentration killing 50% of cells) (NCI-H322M; read-out: pLC50 (converted)): > 100 µM
TGI (NCI-H322M; read-out: pTGI (converted)): 32.4 µM
GI50 (BT-549; read-out: GI50): 1.13 µM
CC50 (BT-549; [17]): 5.22 µM
TGI (BT-549; read-out: TGI): 2.43 µM
GI50 (BT-549; read-out: pGI50 (converted)): 1.12 µM
CC50 (BT-549; [18]): 5.25 µM
TGI (BT-549; read-out: pTGI (converted)): 2.45 µM
Activity (HCT-116): 81%
Activity (786-0 [16]): -27%
Activity (HL-60(TB)): -28.24%
